Source: paper PMC4770715, “LIM kinase inhibitors disrupt mitotic microtubule organization and impair tumor cell proliferation” (Oncotarget, 2015)

Tests used:
Experiment in all cases: biochemical
Design in all cases: KINOMEscan active-site competition binding, percent of control (100 = no competition)
Conditions in all cases: competition binding, percent control
DDR1 = DDR1 (Homo sapiens, UniProt Q08345)
EPHA3 = EPHA3 (Homo sapiens, UniProt P29320)
CDK3 = CDK3 (Homo sapiens, UniProt Q00526)
CAMK2G = CAMK2G (Homo sapiens, UniProt Q13555)
BTK = BTK (Homo sapiens, UniProt Q06187)
CDKL3 = CDKL3 (Homo sapiens, UniProt Q8IVW4)
PLK4 = PLK4 (Homo sapiens, UniProt O00444)
RIOK1 = RIOK1 (Homo sapiens, UniProt Q9BRS2)
SRC = SRC (Homo sapiens, UniProt P12931)
WEE2 = WEE2 (Homo sapiens, UniProt P0C1S8)
[1] = biological target: T1, JAK2(JH1domain-catalytic) (Homo sapiens, UniProt O60674)
T1 construct: JH1domain-catalytic

PIK3CA(E545A) = PIK3CA(E545A) (Homo sapiens, UniProt P42336, E545A)
VEGFR2 = biological target: T2, VEGFR2 (Homo sapiens, UniProt P35968)
T2 construct: gene KDR

ASK2 = biological target: T3, ASK2 (Homo sapiens, UniProt O95382)
T3 construct: gene MAP3K6

PRKG1 = PRKG1 (Homo sapiens, UniProt Q13976)
ANKK1 = ANKK1 (Homo sapiens, UniProt Q8NFD2)
PRKR = biological target: T4, PRKR (Homo sapiens, UniProt P19525)
T4 construct: gene EIF2AK2

RIOK3 = RIOK3 (Homo sapiens, UniProt O14730)
MYLK2 = MYLK2 (Homo sapiens, UniProt Q9H1R3)
FGFR2 = FGFR2 (Homo sapiens, UniProt P21802)
RIPK1 = RIPK1 (Homo sapiens, UniProt Q13546)
PAK4 = PAK4 (Homo sapiens, UniProt O96013)
MARK4 = MARK4 (Homo sapiens, UniProt Q96L34)
Chain of MARK4 (Q96L34 whole entry): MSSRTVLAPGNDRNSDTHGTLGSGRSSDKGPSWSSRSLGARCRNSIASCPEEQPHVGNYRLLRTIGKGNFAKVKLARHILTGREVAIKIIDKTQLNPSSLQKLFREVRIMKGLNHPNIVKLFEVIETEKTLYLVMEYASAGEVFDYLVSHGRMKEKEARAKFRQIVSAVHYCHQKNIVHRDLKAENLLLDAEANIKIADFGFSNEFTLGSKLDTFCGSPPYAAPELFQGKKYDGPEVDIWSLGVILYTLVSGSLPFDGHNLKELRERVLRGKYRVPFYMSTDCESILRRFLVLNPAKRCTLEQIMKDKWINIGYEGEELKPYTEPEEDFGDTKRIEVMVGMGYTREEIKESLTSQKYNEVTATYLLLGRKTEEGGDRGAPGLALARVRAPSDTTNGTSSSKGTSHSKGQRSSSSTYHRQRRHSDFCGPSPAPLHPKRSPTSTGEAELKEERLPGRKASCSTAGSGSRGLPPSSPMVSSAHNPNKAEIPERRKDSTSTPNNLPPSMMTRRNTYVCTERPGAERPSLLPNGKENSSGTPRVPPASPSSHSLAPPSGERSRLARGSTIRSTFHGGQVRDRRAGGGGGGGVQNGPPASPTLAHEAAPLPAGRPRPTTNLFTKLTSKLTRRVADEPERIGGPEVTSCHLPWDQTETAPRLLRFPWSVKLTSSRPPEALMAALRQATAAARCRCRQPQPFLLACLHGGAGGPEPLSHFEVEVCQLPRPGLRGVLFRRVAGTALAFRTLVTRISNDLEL

T1 sequence (O60674 whole entry): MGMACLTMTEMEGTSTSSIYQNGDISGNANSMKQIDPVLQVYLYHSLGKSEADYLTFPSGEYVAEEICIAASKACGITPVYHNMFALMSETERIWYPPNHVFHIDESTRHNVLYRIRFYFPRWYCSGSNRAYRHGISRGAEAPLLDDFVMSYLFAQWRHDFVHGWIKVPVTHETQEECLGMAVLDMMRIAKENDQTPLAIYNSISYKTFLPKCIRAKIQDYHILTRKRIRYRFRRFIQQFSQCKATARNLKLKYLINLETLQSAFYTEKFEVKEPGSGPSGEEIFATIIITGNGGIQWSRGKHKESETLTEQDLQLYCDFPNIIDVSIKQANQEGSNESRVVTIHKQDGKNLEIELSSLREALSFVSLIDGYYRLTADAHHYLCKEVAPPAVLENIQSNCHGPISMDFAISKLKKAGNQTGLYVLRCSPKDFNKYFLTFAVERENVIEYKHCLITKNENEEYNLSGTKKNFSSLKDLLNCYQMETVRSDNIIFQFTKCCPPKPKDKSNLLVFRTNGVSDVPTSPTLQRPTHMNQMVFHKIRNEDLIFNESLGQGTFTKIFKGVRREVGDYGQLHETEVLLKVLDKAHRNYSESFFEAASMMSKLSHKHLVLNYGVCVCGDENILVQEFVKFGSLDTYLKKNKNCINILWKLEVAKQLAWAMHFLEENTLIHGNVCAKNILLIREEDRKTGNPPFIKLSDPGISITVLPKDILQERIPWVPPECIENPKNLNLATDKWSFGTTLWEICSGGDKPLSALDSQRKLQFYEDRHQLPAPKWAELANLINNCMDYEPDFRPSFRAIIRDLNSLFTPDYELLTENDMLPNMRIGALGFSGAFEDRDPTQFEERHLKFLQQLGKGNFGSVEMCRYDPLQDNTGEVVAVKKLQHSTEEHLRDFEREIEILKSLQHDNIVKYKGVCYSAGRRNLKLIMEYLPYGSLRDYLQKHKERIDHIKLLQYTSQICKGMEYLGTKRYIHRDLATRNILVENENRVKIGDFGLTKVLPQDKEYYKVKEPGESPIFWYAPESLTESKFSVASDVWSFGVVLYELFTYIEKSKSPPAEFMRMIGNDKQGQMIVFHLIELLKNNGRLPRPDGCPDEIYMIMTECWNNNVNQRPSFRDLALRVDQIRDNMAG
Chain of MYLK2 (Q9H1R3 whole entry): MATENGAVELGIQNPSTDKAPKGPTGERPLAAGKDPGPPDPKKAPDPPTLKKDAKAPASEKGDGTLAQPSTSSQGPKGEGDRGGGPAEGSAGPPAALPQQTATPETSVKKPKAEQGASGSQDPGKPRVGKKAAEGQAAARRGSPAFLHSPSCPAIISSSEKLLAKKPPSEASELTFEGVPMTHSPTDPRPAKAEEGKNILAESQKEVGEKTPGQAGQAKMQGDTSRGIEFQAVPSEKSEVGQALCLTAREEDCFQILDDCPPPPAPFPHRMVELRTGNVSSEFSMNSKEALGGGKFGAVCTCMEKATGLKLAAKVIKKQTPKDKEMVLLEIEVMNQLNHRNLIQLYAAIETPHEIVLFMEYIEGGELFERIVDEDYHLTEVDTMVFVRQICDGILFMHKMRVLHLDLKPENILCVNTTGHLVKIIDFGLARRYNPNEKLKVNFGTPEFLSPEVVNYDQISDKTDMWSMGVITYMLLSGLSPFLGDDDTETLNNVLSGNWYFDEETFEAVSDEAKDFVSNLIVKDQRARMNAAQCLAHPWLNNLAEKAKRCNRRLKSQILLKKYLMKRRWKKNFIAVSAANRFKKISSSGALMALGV
Chain of CDK3 (Q00526 whole entry): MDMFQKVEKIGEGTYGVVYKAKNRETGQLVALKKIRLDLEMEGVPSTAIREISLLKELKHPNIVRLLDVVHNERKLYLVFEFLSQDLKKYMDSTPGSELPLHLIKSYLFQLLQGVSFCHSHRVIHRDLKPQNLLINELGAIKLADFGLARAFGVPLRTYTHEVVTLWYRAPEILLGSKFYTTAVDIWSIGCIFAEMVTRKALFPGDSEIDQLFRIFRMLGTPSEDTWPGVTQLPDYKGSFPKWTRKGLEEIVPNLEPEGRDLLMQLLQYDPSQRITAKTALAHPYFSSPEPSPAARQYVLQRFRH
Chain of PLK4 (O00444 whole entry): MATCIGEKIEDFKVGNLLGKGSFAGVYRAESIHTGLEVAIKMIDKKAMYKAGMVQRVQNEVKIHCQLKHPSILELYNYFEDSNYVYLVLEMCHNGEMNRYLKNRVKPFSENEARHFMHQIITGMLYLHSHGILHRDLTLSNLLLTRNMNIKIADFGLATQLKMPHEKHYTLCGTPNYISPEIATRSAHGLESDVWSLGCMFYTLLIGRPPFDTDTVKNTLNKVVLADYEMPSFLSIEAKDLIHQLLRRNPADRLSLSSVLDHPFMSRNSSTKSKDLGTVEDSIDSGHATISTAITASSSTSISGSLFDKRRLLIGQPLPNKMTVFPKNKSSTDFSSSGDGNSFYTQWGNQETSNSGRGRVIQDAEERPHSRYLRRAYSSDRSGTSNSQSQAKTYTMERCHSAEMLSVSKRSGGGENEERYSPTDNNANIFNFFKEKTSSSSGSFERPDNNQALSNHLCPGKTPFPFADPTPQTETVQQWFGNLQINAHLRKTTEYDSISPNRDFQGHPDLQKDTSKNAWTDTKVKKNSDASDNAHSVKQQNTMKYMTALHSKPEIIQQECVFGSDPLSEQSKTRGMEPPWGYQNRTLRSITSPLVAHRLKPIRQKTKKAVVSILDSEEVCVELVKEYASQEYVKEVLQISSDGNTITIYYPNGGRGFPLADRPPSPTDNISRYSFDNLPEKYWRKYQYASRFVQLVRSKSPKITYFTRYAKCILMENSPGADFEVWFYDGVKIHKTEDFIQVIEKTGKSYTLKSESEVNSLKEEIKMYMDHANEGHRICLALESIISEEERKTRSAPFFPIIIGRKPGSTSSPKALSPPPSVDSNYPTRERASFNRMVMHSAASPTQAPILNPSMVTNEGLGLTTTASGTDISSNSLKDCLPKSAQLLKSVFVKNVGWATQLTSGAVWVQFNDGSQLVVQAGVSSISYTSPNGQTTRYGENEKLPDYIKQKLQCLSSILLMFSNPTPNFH
Chain of ANKK1 (Q8NFD2 whole entry): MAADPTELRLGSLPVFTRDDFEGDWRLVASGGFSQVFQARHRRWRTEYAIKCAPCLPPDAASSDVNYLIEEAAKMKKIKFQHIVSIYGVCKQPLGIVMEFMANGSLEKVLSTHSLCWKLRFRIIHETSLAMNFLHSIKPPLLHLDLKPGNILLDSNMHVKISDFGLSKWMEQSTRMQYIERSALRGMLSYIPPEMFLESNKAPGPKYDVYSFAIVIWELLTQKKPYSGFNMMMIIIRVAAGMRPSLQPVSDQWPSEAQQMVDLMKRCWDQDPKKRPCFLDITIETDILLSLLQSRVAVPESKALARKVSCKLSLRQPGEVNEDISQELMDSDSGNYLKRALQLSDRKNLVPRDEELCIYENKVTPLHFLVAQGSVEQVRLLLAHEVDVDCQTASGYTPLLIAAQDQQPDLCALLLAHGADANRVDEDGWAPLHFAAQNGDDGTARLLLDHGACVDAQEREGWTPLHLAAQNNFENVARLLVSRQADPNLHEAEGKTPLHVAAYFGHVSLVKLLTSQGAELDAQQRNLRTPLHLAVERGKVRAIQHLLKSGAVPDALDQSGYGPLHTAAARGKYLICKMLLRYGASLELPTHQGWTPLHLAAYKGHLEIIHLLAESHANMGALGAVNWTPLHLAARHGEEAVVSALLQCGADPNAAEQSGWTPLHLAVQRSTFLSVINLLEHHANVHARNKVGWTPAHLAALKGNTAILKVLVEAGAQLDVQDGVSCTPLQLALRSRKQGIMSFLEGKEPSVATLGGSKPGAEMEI
T4 sequence (P19525 whole entry): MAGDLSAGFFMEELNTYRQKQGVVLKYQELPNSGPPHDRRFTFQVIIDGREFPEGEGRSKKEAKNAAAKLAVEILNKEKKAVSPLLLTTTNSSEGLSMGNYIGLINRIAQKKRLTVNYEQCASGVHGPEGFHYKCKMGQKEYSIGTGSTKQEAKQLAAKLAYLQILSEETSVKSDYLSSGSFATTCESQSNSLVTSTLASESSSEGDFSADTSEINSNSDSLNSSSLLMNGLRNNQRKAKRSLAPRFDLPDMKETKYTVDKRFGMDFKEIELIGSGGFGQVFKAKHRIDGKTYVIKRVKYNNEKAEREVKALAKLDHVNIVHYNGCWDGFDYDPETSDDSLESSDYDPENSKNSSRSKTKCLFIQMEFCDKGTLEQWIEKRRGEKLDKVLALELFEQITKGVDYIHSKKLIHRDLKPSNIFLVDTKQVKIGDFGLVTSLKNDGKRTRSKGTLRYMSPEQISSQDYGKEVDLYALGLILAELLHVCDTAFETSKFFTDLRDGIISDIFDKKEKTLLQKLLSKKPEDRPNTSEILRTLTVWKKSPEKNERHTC

Compound	remaining binding at 10 µM (DDR1) [%]	remaining binding at 10 µM (EPHA3) [%]	remaining binding at 10 µM (CDK3) [%]	remaining binding at 10 µM (CAMK2G) [%]	remaining binding at 10 µM (BTK) [%]	remaining binding at 10 µM (CDKL3) [%]	remaining binding at 10 µM (PLK4) [%]	remaining binding at 10 µM (RIOK1) [%]	remaining binding at 10 µM (SRC) [%]	remaining binding at 10 µM (WEE2) [%]	remaining binding at 10 µM [1] [%]	remaining binding at 10 µM (PIK3CA(E545A)) [%]	remaining binding at 10 µM (VEGFR2) [%]	remaining binding at 10 µM (ASK2) [%]	remaining binding at 10 µM (PRKG1) [%]	remaining binding at 10 µM (ANKK1) [%]	remaining binding at 10 µM (PRKR) [%]	remaining binding at 10 µM (RIOK3) [%]	remaining binding at 10 µM (MYLK2) [%]	remaining binding at 10 µM (FGFR2) [%]	also measured
COc1ccc(-c2cnccc2-c2cnc(NC(=O)C(C)C)s2)c(C(F)(F)F)c1 [CRT0105446, N-{5-[3-(4-Methoxy-2-trifluoromethyl-phenyl)-pyridin-4-yl]-hiazol-2-yl}-isobutyramide]	83	87	24	80	85	26	89	97	100	100	100	100	73	100	100	99	81	94	49	100	remaining binding at 10 µM (RIPK1): 90%; remaining binding at 10 µM (PAK4): 82%; remaining binding at 10 µM (MARK4): 57%
Cc1ccc(-c2cnccc2-c2cnc(Nc3ccc(O)cc3)s2)c(Cl)c1 [CRT0105950, 4-{5-[3-(2-Chloro-4-methyl-phenyl)-pyridin-4-yl]-thiazol-2-ylamino}-phenol]	0.1	71	7.7	49	72	23	43	65	82	100	19	100	45	100	72	69	53	66	49	17	remaining binding at 10 µM (RIPK1): 17%; remaining binding at 10 µM (PAK4): 79%; remaining binding at 10 µM (MARK4): 4%
